Test results taken from patent US20040034002A1, “3Alpha-hydroxy-3beta-methoxymethyl-substituted steroids and the use thereof” (Euro-Celtique S.A., priority 1999, published 2004).

What was measured:
[1] = target: [35S]-tert-butylbicyclophosphorothionate (TBPS) binding; assay: Inhibition of [35S]-TBPS binding (in vitro potency); parameters: species or system rat; details: dose of steroid inhibiting 50% of specific binding of [35S]-TBPS
Protocol: (§1) Table I below compares the in vitro potencies [ability to inhibit the binding of [^35S]-tert-butylbicyclophosphorothionate (TBPS)], rotorod TD50's (dose at which half of animals tested fail to stay on a rotating rod for 1 minute) and the length of time before all animals tested are able to pass rotorod test (duration of action) of closely structurally related pairs of 3β-methyl and 3β-methoxymethyl steroids. These methods for measuring in vitro and in vivo activity of compounds of the invention are fully described in U.S. Pat. No. 5,232,917. The TBPS assay gives the in vitro potency of compounds whereas the rotorod assay estimates the sedative/hypnotic activity of compounds. Since the duration of action of a compound is dependent on the dose and will be prolonged at higher doses, the duration of action was measured at the lowest dose where all of the animals failed the rotorod test. For compounds with duration of action >240 minutes, the number of animals passing the rotorod test at 240 minutes is given in parentheses. In each pair, the […] steroid has a biological duration action of greater than 240 minutes, while in each of the corresponding 3β-methoxymethyl steroids the duration of action is reduced to 180 minutes or less. […] Thus, specific 3β-methoxymethyl-substituted neuroactive steroids gave unique and unexpected pharmacokinetic profiles, making them especially useful as sedative/hypnotic and anesthetic agents.

rat = assay: Rotorod test (sedative/hypnotic activity and duration of action); format: in vivo; details: for Number of animals passing the rotorod test at 240 minutes: given for compounds with duration of action >240 minutes; for TD50: Rattus norvegicus, 1 min, read-out: RR TD50 po; for Duration of action: at lowest dose where all animals failed the rotorod test, time until all animals pass again
Protocol: as §1

[2] = po, po, dose at which half of animals fail to stay on a rotating rod for 1 minute

Row | SMILES | IC50 [1] | Number of animals passing the rotorod test at 240 minutes (rat) | TD50 (rat; [2]) | Duration of action (rat) | melting point | RR TD50 po (rat; po, dose at which half of animals fail to stay on a rotating rod for 1 minute)
1 | CC1(O)CCC2(C)C(CCC3C2CCC2(C)C(C(=O)Cn4ccnc4)CCC32)C1 (stereo not drawn) [3α-Hydroxy-21-(1′-imidazolyl)-3β-methyl-5α-pregnan-20-one, reference compound] | 97 nM | (3/8 | 31 mg/kg | >240 min |  | 
2 | CC1(O)CCC2(C)C(CCC3C2CCC2(C)C(C(=O)Cn4ncnn4)CCC32)C1 (stereo not drawn) [3α-Hydroxy-3β-methyl-21-(2′-tetrazolyl)-5α-pregnan-20-one, reference compound] | 44 nM | (0/8 | 4.5 mg/kg | >240 min |  | 
3 | COCC1(O)CCC2(C)C(CCC3C2CCC2(C)C(C(=O)CSc4nnc(N)s4)CCC32)C1 (stereo not drawn) [21-(5′-Amino-[1,3,4]-thiadiazol-2-ylthio)-3 α-hydroxy-3β-methoxymethyl-5α-pregnan-20-one] | 48 nM |  | 40 mg/kg | <90 min | 169 to 172 °C | 
4 | COCC1(O)CCC2(C)C(CCC3C2CCC2(C)C(C(=O)Cn4ccnc4)CCC32)C1 (stereo not drawn) [3α-Hydroxy-21-(1′-imidazolyl)-3β-methoxymethyl-5α-pregnan-20] [3α-Hydroxy-21-(1′-imidazolyl)-3β-methoxymethyl-5α-pregnan-20-one] | 138 nM |  |  | 140 min |  | 28 mg/kg
5 | COCC1(O)CCC2(C)C(CCC3C2CCC2(C)C(C(=O)Cn4ccnc4)CCC32)C1 (stereo not drawn) [3α-Hydroxy-21-(1′-imidazolyl)-3β-methoxymethyl-5β-pregnan-20] [3α-Hydroxy-21-(1′-imidazolyl)-3β-methoxymethyl-5β-pregnan-20-one] | 174 nM |  |  | <180 min |  | 
6 | COCC1(O)CCC2(C)C(CCC3C2CCC2(C)C(C(=O)COc4ccc5c(ccc[n+]5[O-])c4)CCC32)C1 (stereo not drawn) [3α-Hydroxy-3β-methoxymethyl-21-(quinolin-6-yloxy)-5α-pregnan-20-one, N-oxide] | 25 nM |  | 29 mg/kg | 84 min |  | 
7 | COCC1(O)CCC2(C)C(CCC3C2CCC2(C)C(C(=O)Cn4ccnc4)CCC32)C1 (stereo not drawn) [3α-Hydroxy-21-(1′-imidazolyl)-3β-methoxymethyl-5β-pregnan-20-one] |  |  | 30 mg/kg |  |  | 
8 | COCC1(O)CCC2(C)C(CCC3C2CCC2(C)C(C(=O)Cn4ncnn4)CCC32)C1 (stereo not drawn) [3α-Hydroxy-3β-methoxymethyl-21-(2′-tetrazolyl)-5α-pregnan-20-one] | 24 nM |  | 35 mg/kg | 120 min |  | 
9 | CC1(O)CCC2(C)C(CCC3C2CCC2(C)C(C(=O)COc4ccc5c(ccc[n+]5[O-])c4)CCC32)C1 (stereo not drawn) [3α-Hydroxy-3β-methyl-21-(quinolin-6-yloxy)-5α-pregnan-20-one, N-oxide, reference compound] | 46 nM | (1/8 | 15 mg/kg | >240 min |  | 
